Assay results taken from patent US5658501A, “Substituted naphthopyrans” (Transitions Optical, Inc., priority 1995, dated 1997).

Tests used:
[1] = photochromic response rates on an optical bench (test squares); type: physicochemical; conditions: for ΔOD @ SATURATION: UV exposure continued for 20 minutes, same test squares; for ΔOD @ SATURATION / ΔOD/MIN SENSITIVITY: 75° F. (23.9° C.); for ΔOD/MIN SENSITIVITY: measured over first five seconds of UV exposure, expressed per minute, 1.5 x 10^-3 molal in BPA 2EO DMA / poly(ethyleneglycol) 600 dimethacrylate polymer; for Bleach Rate (T1/2): time for absorbance of activated form to reach one half the highest absorbance, room temperature (75° F., 23.9° C.), after removal of activating light
Method: Testing was done with the photochromic naphthopyrans of the Examples incorporated into polymeric samples by the following method. The quantity of naphthopyran calculated to yield a 1.5 time 10^-3 molal solution was added to a flask containing 50 grams of a monomer blend of 4 parts ethoxylated bisphenol A dimethacrylate (BPA 2EO DMA), 1 part poly(ethyleneglycol) 600 dimethacrylate, and 0.033 weight percent 2,2'-azobis (2-methyl propionitrile) (AIBN). The naphthopyran was dissolved into the monomer blend by stirring and gentle heating, if necessary. After a clear solution was obtained, it was poured into a flat sheet mold having the interior dimensions of 2.2 mm×6 inches (15.24 cm)×6 inches (15.24 cm). The mold was sealed and placed in a horizontal air flow, programmable oven set to increase the temperature from 40° C. to 95° C. over a 5 hour interval, hold the temperature at 95° C. for 3 hours and then lower it to 60° C. for at least 2 hours before the end of the curing cycle. After the mold was opened, the polymer sheet was cut using a diamond blade saw into 2 inch (5.1 centimeters) test squares.
The photochromic test squares prepared in Part A were tested for photochromic response rates on an optical bench. […] The bench was fitted with a 150 watt Xenon arc lamp, a remote controlled shutter, a copper sulfate bath acting as a heat sink for the arc lamp, a Schott WG-320 nm cut-off filter which removes short wavelength radiation; neutral density filter(s) and a sample holder in which the square to be tested was inserted. A collimated beam of light from a tungsten lamp was passed through the square at a small angle normal to the square. After passing through the square, the light from the tungsten lamp was directed through a photopic filter attached to a detector. The photopic filter passes wavelengths such that the detector mimics the response of the human eye. The output signals from the detector(s) were processed by a radiometer.
Change in optical density (ΔOD) was determined by inserting a test square in the bleached state into the sample holder, adjusting the transmittance scale to 100%, opening the shutter from the Xenon lamp to provide ultraviolet radiation to change the test square from the bleached state to an activated (i.e., darkened) state, measuring the transmittance in the activated state; and calculating the change in optical density according to the formula Δ OD=log(100/%Ta) where %Ta is the percent transmittance in the activated state and the logarithm is to the base 10.
(§1) The Δ OD/Min, which represents the sensitivity of the photochromic compound's response to UV light, was measured over the first five (5) seconds of UV exposure, then expressed on a per minute basis. The saturation optical density (OD) was taken under identical conditions as the Δ OD/Min, except UV exposure was continued for 20 minutes for the examples in Table 1. The lambda max reported in Table 1 is the wavelength in the visible spectrum at which the maximum absorption of the activated (colored) form of the photochromic compound in a diethylene glycol bis(allyl carbonate) composition occurs.

[2] = lambda max of the activated (colored) form in the visible spectrum; type: physicochemical; conditions: activated form in a diethylene glycol bis(allyl carbonate) composition
Method: as §1, with “occurs. The Bleach Rate (T 1/2) is the time interval in seconds for the absorbance of the activated form of the naphthopyran in the test squares to reach one half the highest absorbance at room temperature (75° F., 23.9° C.) after removal of the source of activating light.” for “occurs.”

Row | SMILES | ΔOD @ SATURATION [1] | ΔOD/MIN SENSITIVITY [1] | Bleach Rate (T1/2) [1] | LAMBDA MAX (VISIBLE) [2]
1 | COc1ccc(C2(c3ccc(OC)cc3)C=Cc3c(-c4ccc(OC)cc4OC)c(OC(C)=O)c4ccccc4c3O2)cc1 [Example 2, 2,2-bis(4-methoxyphenyl)-5-(2,4-dimethoxyphenyl)-6-acetoxy-2H-naphtho[1,2-b]pyran] | 0.55 | 0.15 ΔOD/MIN | 4.13 min | 511 nm
2 | COc1ccc(C2(c3ccc(OC)cc3)C=Cc3c(-c4cccn4C)c(OC(C)=O)c4ccccc4c3O2)cc1 [Example 1, 2,2-bis(4-methoxyphenyl)-5-(N-methylpyrrol-2-yl)-6-acetoxy-2H-naphtho[1,2-b]pyran] | 0.25 | 0.16 ΔOD/MIN | 1.23 min | 513 nm
3 | COc1c(C)c2c(c3ccccc13)OC1(C=C2)C2CC3CC(C2)CC1C3 (centres unmarked) [Example 9, 2,2'-spiroadamantylene-5-methyl-6-methoxy-2H-naphtho[1,2-b]pyran] | 0.17 | 0.12 ΔOD/MIN | 2.55 min | 462 nm
4 | COc1ccc(C2(c3ccc(OC)cc3)C=Cc3c(Sc4ccccc4)c(OC(C)=O)c4ccccc4c3O2)cc1 [Example 4, 2,2-bis(4-methoxyphenyl)-5-phenylthio-6-acetoxy-2H-naphtho[1,2-b]pyran] | 0.23 | 0.22 ΔOD/MIN | 0.7 min | 516 nm
5 | COc1ccc(C2(c3ccc(OC)cc3)C=Cc3c(Sc4ccccc4)c(O)c4ccccc4c3O2)cc1 [Example 3, 2,2-bis(4-methoxyphenyl)-5-phenylthio-6-hydroxy-2H-naphtho[1,2-b]pyran] | 1.76 | 0.34 ΔOD/MIN | > 10 min | 516 nm
6 | COc1ccc(C2(c3ccc(OC)cc3)C=Cc3c(C(O)(c4ccccc4)c4ccccc4)c(O)c4ccccc4c3O2)cc1 [Example 10, 2,2-bis (4-methoxyphenyl)-5-diphenylmethylol-6-hydroxy-2H-naphtho[1,2-b]pyran] | 0.32 | 0.05 ΔOD/MIN | > 13.3 min | 482 nm
7 | Oc1c(Sc2ccccc2)c2c(c3ccccc13)OC1(C=C2)C2CC3CC(C2)CC1C3 (centres unmarked) [Example 7, 2,2'-spiroadamantylene-5-phenylthio-6-hydroxy-2H-naphtho[1,2-b]pyran] | 0.47 | 0.15 ΔOD/MIN | 3.08 min | 462 nm
8 | COc1ccc(C2(c3ccc(OC)cc3)C=Cc3c(C(O)(c4ccccc4)c4ccccc4)c(OC)c4ccccc4c3O2)cc1 [Example 11, 2,2-bis(4-methoxyphenyl)-5-diphenylmethylol-6-methoxy-[2H]-naphtho[1,2-b]pyran] | 0.19 | 0.10 ΔOD/MIN | 1.42 min | 467 nm
9 | COc1ccc(C2(c3ccc(OC)cc3)C=Cc3c(C)c(OC(C)=O)c4ccccc4c3O2)cc1 [Example 6, 2,2-bis(4-methoxyphenyl)-5-methyl-6-acetoxy-2H-naphtho[1,2-b]pyran] | 0.37 | 0.14 ΔOD/MIN | 2 min | 506 nm
10 | COc1ccc(C2(c3ccc(OC)cc3)C=Cc3c(Cl)c(OC(C)=O)c4ccccc4c3O2)cc1 [Example 5, 2,2-bis(4-methoxyphenyl)-5-chloro-6-acetoxy-2H-naphtho[1,2-b]pyran] | 0.07 | 0.08 ΔOD/MIN | 0.9 min | 462 nm
11 | CC(=O)Oc1c(Sc2ccccc2)c2c(c3ccccc13)OC1(C=C2)C2CC3CC(C2)CC1C3 (centres unmarked) [Example 8, 2,2'-spiroadamantylene-5-phenylthio-6-acetoxy-2H-naphtho[1,2-b]pyran] | 0.04 | 0.10 ΔOD/MIN | 1.13 min | 459 nm
